{"source": "patent US20100130829A1", "about": "“MATERIALS AND METHODS FOR DETECTING EARLY CELL MIGRATION EVENTS” (priority 2008, published 2010)", "molecular_target": "beta2-adrenergic receptors in A431 (Homo sapiens, UniProt P07550)", "sequence (P07550 whole entry)": "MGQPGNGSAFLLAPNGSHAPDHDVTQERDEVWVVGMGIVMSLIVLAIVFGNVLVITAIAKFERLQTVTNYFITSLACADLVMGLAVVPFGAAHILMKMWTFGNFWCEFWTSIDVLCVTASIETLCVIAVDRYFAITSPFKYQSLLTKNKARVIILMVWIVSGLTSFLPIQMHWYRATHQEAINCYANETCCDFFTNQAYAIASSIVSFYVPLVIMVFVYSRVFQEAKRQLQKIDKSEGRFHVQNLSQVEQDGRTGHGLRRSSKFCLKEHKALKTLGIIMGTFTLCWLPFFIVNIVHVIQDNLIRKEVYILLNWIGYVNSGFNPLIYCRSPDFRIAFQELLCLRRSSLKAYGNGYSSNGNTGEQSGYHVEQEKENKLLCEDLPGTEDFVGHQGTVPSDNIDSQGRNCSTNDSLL", "details": "quiescent A431 cells; epinephrine gradient; responses resembled classical dose-dependent responses", "method": "Human epidermoid carcinoma A431 cells were obtained from American Type Cell Culture. A431 cells were grown in Dulbecco's modified Eagle's medium (DMEM) supplemented with 10% fetal bovine serum (FBS), 4.5 g/liter glucose, 2 mM glutamine, and antibiotics. For cell culture, ˜4×10^4 cells suspended in 6 μl the medium containing 10% FBS were injected into the chamber, and were cultured at 37° C. under air/5% CO2 until ˜95% confluency was reached (˜1 day). To prevent drying during the culture, the biosensor device was maintained within a petri dish with a cover, and extra cell medium within the dish. The cells were then subject to starvation with the medium without any FBS for overnight. […] The optical system allows one to collect the resonant image of whole sensor at the single cell.\nComing RWG imaging system was used for label-free biosensor cell assays. The imaging system is capable of high resolution imaging, with a spatial resolution of 6 microns in the direction perpendicular to the propagation path of the coupled light, a resolution of about 150 microns in the direction parallel to the propagation path of the coupled light. The cellular responses across the whole sensor were recorded in real time at each pixel (6 microns×6 microns). The cellular responses at defined locations or zones from the inlet to the outlet were averaged to generate location-dependent cellular responses. […]", "data": [{"smiles": "CNC[C@H](O)c1ccc(O)c(O)c1", "note": "[epinephrine]", "values": [{"measurement": "chemoattractant determination from location-dependent DMR responses", "result": "not a chemoattractant"}]}]}
